Measurements as given in PubChem BioAssay (NCI).
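Interpolation was linear, between the two tested concentrations surrounding the appropriate level; five concentrations were tested over 48 hours in 96-well plates. GI50 = concentration required for 50% inhibition of growth. Definition used: TGI = concentration required for complete inhibition of growth.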

Experiments:
Test in all cases: NCI anticancer screen, dose series, 48 h
SK-MEL-5 melanoma = system: SK-MEL-5 melanoma
U251 CNS = system: U251 CNS
OVCAR-3 ovarian = system: OVCAR-3 ovarian
HT29 colon = system: HT29 colon
UACC-257 melanoma = system: UACC-257 melanoma
HS 578T breast = system: HS 578T breast
SK-OV-3 ovarian = system: SK-OV-3 ovarian
UACC-62 melanoma = system: UACC-62 melanoma
HCT-15 colon = system: HCT-15 colon
K-562 leukemia = system: K-562 leukemia

| Compound | GI50 (SK-MEL-5 melanoma) [µM] | TGI (SK-MEL-5 melanoma) [µM] | GI50 (U251 CNS) [µM] | TGI (U251 CNS) [µM] | GI50 (OVCAR-3 ovarian) [µM] | TGI (OVCAR-3 ovarian) [µM] | GI50 (HT29 colon) [µM] | TGI (HT29 colon) [µM] | GI50 (UACC-257 melanoma) [µM] | TGI (UACC-257 melanoma) [µM] | GI50 (HS 578T breast) [µM] | TGI (HS 578T breast) [µM] | GI50 (SK-OV-3 ovarian) [µM] | TGI (SK-OV-3 ovarian) [µM] | GI50 (UACC-62 melanoma) [µM] | TGI (UACC-62 melanoma) [µM] | GI50 (HCT-15 colon) [µM] | TGI (HCT-15 colon) [µM] | GI50 (K-562 leukemia) [µM] | TGI (K-562 leukemia) [µM] |
| --- | --- | --- | --- | --- | --- | --- | --- | --- | --- | --- | --- | --- | --- | --- | --- | --- | --- | --- | --- | --- |
| COC(=O)c1ccc(NC(=O)c2ccc(NC3=C(Cl)C(=O)N(Cc4ccccc4)C3=O)cc2)cc1 | 34.7 | > 100 | 9.63 | 21.4 | 14 | 26.9 | 22.5 | 51.2 | 27.3 | 76.5 | 35.9 | > 100 | 20.7 | 38.3 | 18.7 | 37.1 | 14.6 | 27.7 | 19 | > 100 |
| COc1cc2c3c(n(CCN4CCOCC4)c(=O)c2cc1OC)-c1ccccc1C3=O | > 100 | > 100 | 62.3 | > 100 | > 100 | > 100 | > 100 | > 100 | > 100 | > 100 | > 100 | > 100 | 90.4 | > 100 | 56.8 | > 100 | > 100 | > 100 | 99.3 | > 100 |
| CN(C)CC1C(=O)O[C@H]2[C@H]1CC/C(COC(=O)NCc1ccc(Cn3c(=O)sn(CCCI)c3=O)cc1)=C\CC[C@@]1(C)O[C@@H]21 (stereo not given in full) | 6.53 | 13.3 | 7.53 | 14.3 | 0.775 | 1.45 | 0.945 | 1.84 | 4.04 | 11.7 | 5.75 | 17.7 | 7.96 | 14.8 | 1.28 | 3.97 | 0.965 | 2.13 | 1.02 | 6.01 |
| Cn1cc(C2=C(c3cc[nH]c3)C(=O)NC2=O)c2ccccc21 | > 25 | > 25 | > 25 | > 25 | > 22.7 | > 25 | > 25 | > 25 | > 25 | > 25 | 9.97 | > 25 | > 23.3 | > 25 | > 25 | > 25 | > 25 | > 25 | > 25 | > 25 |
| Cc1nc2sc(C(=O)Nc3ccccc3)c(N)c2cc1C(O)c1ccccc1 (stereo not given) | 0.338 | 1.63 | 0.292 | > 100 | 0.263 | 3.3 | 0.326 | 17.6 | 4.21 | > 52 | 0.325 | > 35.1 | 0.523 | 38.5 | 0.382 | > 48.3 | 0.17 | > 100 | 0.0933 | > 59.2 |
| O=c1cc(-c2ccccc2)oc2cc(OCCCCCN3CCOCC3)cc(O)c12 | > 100 | > 100 | 18.6 | 45.5 | > 100 | > 100 | 40.3 | > 100 | > 100 | > 100 | 41.3 | > 100 | 16.4 | 44.1 | 95.7 | > 100 | 42 | > 100 | 29 | > 100 |
